Where a name gives a salt, the structure may show the parent alone.
Assays:
Type in all cases: biochemical
[1] = Pro-Drug DTNB assay with or without esterase; conditions: for Reduction Without Esterase / Reduction With Esterase: 22.5 μM prodrug, 100 μM DTNB; for Reduction Without Esterase: pH 7.5, no enzyme; for Reduction With Esterase: pH 7.5, porcine liver esterase
Procedure: The present invention provides a series of mucolytic pro-drugs (see R^6=other than H) that are activated by common enzymes that are present in the extracellular milieu (e.g., nucelotidases, phosphatases, and esterases). As a proof-of-concept, the reducing kinetics of the pro-drug compound 46 in the presence or absence of an activating esterase were tested.
This assay was designed to determine whether prodrug caps added on to our monothiol mucolytic compounds can be cleaved from the molecule. If so, the outcome would be an “active” compound that is able to reduce the S—S bond in DTNB. Similar to the activity concentration version of the DTNB assay described above, monothiol prodrugs were mixed at a final concentration of 22.5 μM with excess DTNB (100 μM final) in 1 mL 50 mM Tris-HCl buffer (pH 7.5) and maximum Abs412 was measured. In the absence of a purified hydrolytic enzyme (e.g. porcine liver esterase; Sigma), the amount of DTNB cleavage observed is an indicator for stability of the cap on the prodrug compound (i.e. if the prodrug remains intact in solution the Abs412=0). Next, 5 uL of esterase (bought as an ammonium sulfate suspension that is subsequently centrifuged to isolate the esterase and then dissolved in reaction buffer prior to assaying) is combined with excess DTNB (100 μM final) and 22.5 μM pro-drug in 1 mL 50 mM Tris-HCl buffer (pH 7.5). Cleavage of the prodrug cap can be visualized in real time via DTNB cleavage at Abs412 by the esterase-liberated monothiol molecule.

[2] = DTNB assay: rate of S-S bond reduction; conditions: pH 6; 22.5 μM reducing agent, 45 μM DTNB, 50 mM Tris-HCl
Excerpt: Thiol-containing compounds, such as the monothiol mucolytic agents described in this patent, can react with DTNB (5,5-Dithiobis(2-nitrobenzoic acid)) resulting in the cleavage of its single S—S bond. The DTNB assay serves a dual purpose in our analysis of monothiol compounds, as it can (1) be used to determine the “active concentration” of the mucolytic compounds (what amount of the compound in a reaction is able to cleave S—S bonds) and (2) to assess the rate that the compound can cleave S—S bonds. When cleaved, the resulting compound, NTB (2-nitro-5-thiobenzoate), is a colored product that is measured spectrophotometrically at an absorbance of 412 nm (Abs412). Using the molar extinction coefficient of NTB and measured maximum Abs412, the molar amount of DTNB that reacted with our mucolytic agents can be calculated. Monothiol mucolytic compounds react at a 1:1 stoichiometric ratio with DTNB (i.e. 1 mole of NTB is produced when 1 mole of DTNB is reacted with 1 mole of a monothiol reducing agent). To define the activity concentration of a compound, a final concentration of 22.5 μM mucolytic reducing agent was combined with an excess of DTNB (100 μM) in 1 mL 50 mM Tris-HCl buffer (pH 7.5). Maximum Abs412 was measured and then utilized to calculate the activity concentration. If observed activity concentrations differed from expected activity concentrations by more than 5%, the amount of the compound added to each reaction was accordingly adjusted to kinetically test the reducing rate in the next step. To determine rate of mucolytic reducing activity, 22.5 μM active reducing agent is combined with 45 μM DTNB in 1 mL 50 mM Tris-HCl buffer over a pH range (6.0-7.5). Abs412 is recorded in real time upon addition of the compound and rates were calculated using 2nd order kinetic parameters.

[3] = target: T1, Muc5B (Homo sapiens, UniProt Q9HC84); experiment: Mucin agarose gel western blot (saliva / mucus samples); conditions: for MUC5B reduction: human mucus samples
T1 construct: Various mucin-containing substrates (e.g. saliva, harvested HBE mucus, and disease sputum) treated with our monothiol mucolytic compounds; from tissue; host or cells: saliva; harvested HBE mucus; disease sputum
Procedure: Various mucin-containing substrates (e.g. saliva, harvested HBE mucus, and disease sputum) treated with our monothiol mucolytic compounds are quenched upon completion of the treatment period with a 10-fold excess of N-ethylmaleimide in order to alkylate any remaining active compound and to prevent further mucin reduction. A 10× concentrated sample loading buffer is diluted into each sample (1×TAE/5% glycerol/0.1% SDS/Bromophenol Blue). Samples ([…]) were analyzed by electrophoresis on 0.9% agarose gels using a buffer system consisting of 1×TAE/0.1% SDS. The agarose gel was soaked for 15 min in 4×SSC (0.6 M NaCl, 60 mM Tri-sodium citrate dehydrate) containing 10 mM DTT before transferring the samples from the gel onto a nitrocellulose membrane by vacuum blotter. Unreduced and reduced Muc5B were visualized on a LiCor Odyssey imaging detection system using a polyclonal antibody directed towards Muc5B.

SMILES	Reduction Without Esterase [1]	Reduction With Esterase [1]	DTNB reduction rate [2] [M⁻¹ s⁻¹]	also measured
Cl.O=C(SCc1cccc(OCCN(C[C@H](O)[C@@H](O)[C@H](O)[C@H](O)CO)C[C@H](O)[C@@H](O)[C@H](O)[C@H](O)CO)c1)c1ccco1 [Compound 9, S-3-(2-(bis((2S,3R,4R,5R)-2,3,4,5,6-pentahydroxyhexyl)amino)ethoxy)benzyl furan-2-carbothioate Hydrochloride]	No	Yes		
Cl.O=C(SCc1cccc(OCCN(C[C@@H](O)[C@@H](O)[C@H](O)[C@H](O)CO)C[C@@H](O)[C@@H](O)[C@H](O)[C@H](O)CO)c1)c1ccco1 [Compound 10, S-3-(2-(bis((2R,3R,4R,5R)-2,3,4,5,6-pentahydroxyhexyl)amino)ethoxy)benzylfuran-2-carbothioate Hydrochloride]	No	Yes		
CC(=O)SCc1cccc(OCCN(C[C@H](O)[C@@H](O)[C@H](O)[C@H](O)CO)C[C@H](O)[C@@H](O)[C@H](O)[C@H](O)CO)c1.Cl [Compound 17, S-3-(2-(bis((2S,3R,4R,5R)-2,3,4,5,6-pentahydroxyhexyl)amino)ethoxy)benzyl Ethanethioate Hydrochloride]	No	Yes		
CC(=O)SCc1cccc(OCCN(C[C@@H](O)[C@@H](O)[C@H](O)[C@H](O)CO)C[C@@H](O)[C@@H](O)[C@H](O)[C@H](O)CO)c1 [Compound 18, S-3-(2-(bis((2R,3R,4R,5R)-2,3,4,5,6-pentahydroxyhexyl)amino)ethoxy)benzyl Ethanethioate]	No	Yes		
Cl.OC[C@@H](O)[C@@H](O)[C@H](O)[C@@H](O)CN(CCOc1cccc(CS)c1)C[C@H](O)[C@@H](O)[C@H](O)[C@H](O)CO [Compound 19, (2R,2′R,3R,3′R,4R,4′R,5S,5′S)-6,6′-((2-(3-(mercaptomethyl)phenoxy)ethyl)azanediyl)bis(hexane-1,2,3,4,5-pentaol) Hydrochloride]			182.52	
Cl.OC[C@@H](O)[C@@H](O)[C@H](O)[C@H](O)CN(CCOc1cccc(CS)c1)C[C@@H](O)[C@@H](O)[C@H](O)[C@H](O)CO [Compound 20, (2R,2′R,3R,3′R,4R,4′R,5R,5′R)-6,6′-((2-(3-(mercaptomethyl)phenoxy)ethyl)azanediyl)bis(hexane-1,2,3,4,5-pentaol) Hydrochloride]			307.08	
CC(=O)SCc1ccc(OCCCCCCN(C[C@H](O)[C@@H](O)[C@H](O)[C@H](O)CO)C[C@H](O)[C@@H](O)[C@H](O)[C@H](O)CO)cc1.Cl [Compound 46, S-4-((6-(bis((2S,3R,4R,5R)-2,3,4,5,6-pentahydroxyhexyl)amino)hexyl)oxy)benzyl Ethanethioate Hydrochloride]	No	Yes		reduction of disulfide bonds by pro-drug alone ([1]; absence of activating esterase): does not reduce disulfide; reaction rates on addition of activating enzyme ([1]; presence of activating esterase): concentration dependent increase in reaction rates; MUC5B reduction [3]: reduce MUC5B
Cl.OC[C@@H](O)[C@@H](O)[C@H](O)[C@@H](O)CN(CCCCCCOc1ccc(CS)cc1)C[C@H](O)[C@@H](O)[C@H](O)[C@H](O)CO [Compound 47, (2R,2′R,3R,3′R,4R,4′R,5S,5′S)-6,6′-((6-(4-(mercaptomethyl)phenoxy)hexyl)azanediyl)bis(hexane-1,2,3,4,5-pentaol) Hydrochloride]			211.3	time to fully reduce all available disulfides ([1]; parent molecule, same conditions as pro-drug test): < 10 s; reducing capacity relative to 76 (Muc5B) ([3]; FIG. 3): retain the reducing capacity of 76; MUC5B reduction [3]: reduce MUC5B
NCCCCCCOc1ccc(CS)cc1 [Compound 48]			190.8	
Cl.OC[C@@H](O)[C@@H](O)[C@H](O)[C@H](O)CN(CCOc1ccc(CS)cc1)C[C@@H](O)[C@@H](O)[C@H](O)[C@H](O)CO [Compound 58, (2R,2′R,3R,3′R,4R,4′R,5R,5′R)-6,6′-((2-(4-(mercaptomethyl)phenoxy)ethyl)azanediyl)bis(hexane-1,2,3,4,5-pentaol) Hydrochloride]			258.31	
CO[C@@H]1OC(CS)[C@H](O)C(O)C1O (some centres unmarked) [compound 95, reference compound]				Muc5b reduction ([3]; FIG. 4, 30 mM): partial Muc5b reduction

Now from value to compound, other results behind:

Reduction Without Esterase [1]	Reduction With Esterase [1]	SMILES	DTNB reduction rate [2] [M⁻¹ s⁻¹]	also measured
No	Yes	CC(C)C(=O)SCc1cccc(OCCN(C[C@H](O)[C@@H](O)[C@H](O)[C@H](O)CO)C[C@H](O)[C@@H](O)[C@H](O)[C@H](O)CO)c1 [Compound 14, S-3-(2-(bis((2S,3R,4R,5R)-2,3,4,5,6-entahydroxyhexyl)amino)ethoxy)benzyl 2-methylpropanethioate Hydrochloride]		
No	Yes	CC(C)C(=O)SCc1cccc(OCCN(C[C@@H](O)[C@@H](O)[C@H](O)[C@H](O)CO)C[C@@H](O)[C@@H](O)[C@H](O)[C@H](O)CO)c1.Cl [Compound 15a, S-3-(2-(bis((2R,3R,4R,5R)-2,3,4,5,6-pentahydroxyhexyl)amino)ethoxy)benzyl 2-methylpropanethioate Hydrochloride]		
No	Yes	CCC(=O)SCc1cccc(OCCN(C[C@H](O)[C@@H](O)[C@H](O)[C@H](O)CO)C[C@H](O)[C@@H](O)[C@H](O)[C@H](O)CO)c1.Cl [Compound 24, S-3-(2-(bis((2S,3R,4R,5R)-2,3,4,5,6-pentahydroxyhexyl)amino)ethoxy)benzyl Propanethioate Hydrochloride]		
No	Yes	CCC(=O)SCc1cccc(OCCN(C[C@@H](O)[C@@H](O)[C@H](O)[C@H](O)CO)C[C@@H](O)[C@@H](O)[C@H](O)[C@H](O)CO)c1.Cl [Compound 25, S-3-(2-(bis((2R,3R,4R,5R)-2,3,4,5,6-pentahydroxyhexyl)amino)ethoxy)benzyl Propanethioate Hydrochloride]		
No	Yes	CC(C)C(=O)SCc1ccc(OCCN(C[C@@H](O)[C@@H](O)[C@H](O)[C@H](O)CO)C[C@@H](O)[C@@H](O)[C@H](O)[C@H](O)CO)cc1.Cl [Compound 59, S-4-(2-(bis((2R,3R,4R,5R)-2,3,4,5,6-pentahydroxyhexyl)amino)ethoxy)benzyl 2-methylpropanethioate Hydrochloride]		
